Measurements: ChEMBL document CHEMBL1134604, “2-Alkynyl-8-aryl-9-methyladenines as novel adenosine receptor antagonists: their synthesis and structure-activity relationships toward hepatic glucose production induced via agonism of the A(2B) receptor” (J Med Chem, 2001)

Experiments:
Adenosine receptor A2b [1] = molecular target: T1, Adenosine receptor A2b (Homo sapiens, UniProt P29275); test: Inhibitory activity on NECA-induced cyclic-AMP accumulation in CHO-K1 cells expressing human Adenosine A2B receptor; assay type: functional, cell-based
T1 sequence (P29275 whole entry): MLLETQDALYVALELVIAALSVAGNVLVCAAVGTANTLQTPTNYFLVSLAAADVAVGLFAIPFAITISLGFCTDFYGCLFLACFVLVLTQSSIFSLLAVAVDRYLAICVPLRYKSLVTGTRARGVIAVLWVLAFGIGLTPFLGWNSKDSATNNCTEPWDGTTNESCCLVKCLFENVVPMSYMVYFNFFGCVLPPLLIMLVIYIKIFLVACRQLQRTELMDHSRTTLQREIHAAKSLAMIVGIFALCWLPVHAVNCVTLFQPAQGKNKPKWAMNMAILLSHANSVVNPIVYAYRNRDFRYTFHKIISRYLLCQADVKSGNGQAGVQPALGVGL

Adenosine receptor A2b [2] = molecular target: T2, Adenosine receptor A2b (Rattus norvegicus, UniProt P29276); test: Inhibitory activity on N-ethylcarboxamidoadenosine (NECA)-induced glucose production in primary cultured rat hepatocytes; assay type: functional, cell-based, Hepatocyte
T2 sequence (P29276 whole entry): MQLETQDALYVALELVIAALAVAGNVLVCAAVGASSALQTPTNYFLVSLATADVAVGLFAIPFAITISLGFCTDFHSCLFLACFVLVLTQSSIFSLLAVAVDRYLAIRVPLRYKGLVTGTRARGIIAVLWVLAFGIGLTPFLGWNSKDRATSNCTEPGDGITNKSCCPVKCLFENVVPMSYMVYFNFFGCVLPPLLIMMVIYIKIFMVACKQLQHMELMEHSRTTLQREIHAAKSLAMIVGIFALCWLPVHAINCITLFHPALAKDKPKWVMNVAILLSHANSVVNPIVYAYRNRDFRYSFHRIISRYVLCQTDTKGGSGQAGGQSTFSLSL

Adenosine receptor A1 [3] = molecular target: T3, Adenosine receptor A1 (Homo sapiens, UniProt P30542); test: Binding Affinity towards Adenosine A1 receptor expressed in CHO-K1 cells versus [3H]CCPA; assay type: cell-based
T3 sequence (P30542 whole entry): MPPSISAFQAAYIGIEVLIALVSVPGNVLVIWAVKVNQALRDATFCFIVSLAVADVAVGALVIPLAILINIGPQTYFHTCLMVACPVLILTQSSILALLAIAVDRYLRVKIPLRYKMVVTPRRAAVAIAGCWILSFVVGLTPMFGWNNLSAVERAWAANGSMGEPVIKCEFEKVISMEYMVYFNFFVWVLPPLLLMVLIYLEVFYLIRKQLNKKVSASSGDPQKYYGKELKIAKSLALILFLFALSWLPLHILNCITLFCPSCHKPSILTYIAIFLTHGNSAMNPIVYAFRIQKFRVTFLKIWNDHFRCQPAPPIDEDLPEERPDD

Adenosine receptor A2a [4] = molecular target: T4, Adenosine receptor A2a (Homo sapiens, UniProt P29274); test: Binding Affinity towards Adenosine A2A receptor expressed in HEK293 cells versus [3H]CGS-21680; assay type: cell-based
T4 sequence (P29274 whole entry): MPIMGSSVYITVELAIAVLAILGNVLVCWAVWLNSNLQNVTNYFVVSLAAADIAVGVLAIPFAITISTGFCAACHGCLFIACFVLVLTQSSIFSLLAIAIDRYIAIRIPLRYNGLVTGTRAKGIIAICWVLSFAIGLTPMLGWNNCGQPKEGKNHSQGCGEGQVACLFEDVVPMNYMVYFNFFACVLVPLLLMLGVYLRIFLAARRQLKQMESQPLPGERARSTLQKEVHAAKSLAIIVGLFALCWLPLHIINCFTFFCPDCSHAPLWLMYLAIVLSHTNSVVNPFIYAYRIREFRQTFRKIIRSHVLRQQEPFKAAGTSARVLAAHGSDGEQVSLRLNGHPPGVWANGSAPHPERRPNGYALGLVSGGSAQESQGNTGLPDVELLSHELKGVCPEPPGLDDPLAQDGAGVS

Adenosine receptor A3 [5] = molecular target: T5, Adenosine receptor A3 (Homo sapiens, UniProt P0DMS8); test: Binding affinity towards adenosine A3 receptor expressed in HEK293 cells versus [125I]AB-MECA; assay type: cell-based
T5 sequence (P0DMS8 whole entry): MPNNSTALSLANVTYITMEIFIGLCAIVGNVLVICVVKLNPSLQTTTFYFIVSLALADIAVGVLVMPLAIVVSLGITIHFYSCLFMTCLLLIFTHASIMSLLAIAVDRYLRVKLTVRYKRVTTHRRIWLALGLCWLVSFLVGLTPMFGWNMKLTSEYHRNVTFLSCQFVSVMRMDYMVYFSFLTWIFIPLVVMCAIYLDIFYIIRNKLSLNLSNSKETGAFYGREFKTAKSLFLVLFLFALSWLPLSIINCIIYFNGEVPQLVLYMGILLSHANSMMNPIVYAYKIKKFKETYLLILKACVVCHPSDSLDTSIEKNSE

Adenosine receptor A1 [6] = molecular target: T6, Adenosine receptor A1 (Rattus norvegicus, UniProt P25099); test: Inhibitory activity against cyclic AMP production in rat Adenosine A1 receptor assay
T6 sequence (P25099 whole entry): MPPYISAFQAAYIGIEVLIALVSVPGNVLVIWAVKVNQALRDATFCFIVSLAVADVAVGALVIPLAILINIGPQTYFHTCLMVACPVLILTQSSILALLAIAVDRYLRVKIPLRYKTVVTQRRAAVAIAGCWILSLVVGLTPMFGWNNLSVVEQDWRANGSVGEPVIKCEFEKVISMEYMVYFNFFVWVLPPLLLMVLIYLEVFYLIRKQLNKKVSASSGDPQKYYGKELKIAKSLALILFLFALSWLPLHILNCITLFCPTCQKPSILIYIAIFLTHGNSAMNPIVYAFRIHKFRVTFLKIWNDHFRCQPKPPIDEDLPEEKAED

[7] = molecular target: Adenosine receptor A2a (Rattus norvegicus) (UniProt P30543); test: Inhibitory activity against cyclic AMP production in rat Adenosine A2A receptor assay
Chain of Adenosine receptor A2a (Rattus norvegicus) (P30543 whole entry, looked up): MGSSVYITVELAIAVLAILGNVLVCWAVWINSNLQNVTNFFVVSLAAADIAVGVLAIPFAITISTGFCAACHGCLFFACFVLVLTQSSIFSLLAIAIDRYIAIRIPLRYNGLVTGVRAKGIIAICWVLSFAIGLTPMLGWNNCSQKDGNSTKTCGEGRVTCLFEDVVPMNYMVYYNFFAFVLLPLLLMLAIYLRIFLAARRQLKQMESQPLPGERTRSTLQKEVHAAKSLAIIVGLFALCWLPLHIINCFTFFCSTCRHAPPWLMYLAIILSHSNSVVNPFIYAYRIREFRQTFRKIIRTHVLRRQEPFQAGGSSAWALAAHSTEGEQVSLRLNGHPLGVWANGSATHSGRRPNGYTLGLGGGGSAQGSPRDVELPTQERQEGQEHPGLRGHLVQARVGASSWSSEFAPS

Adenosine receptor A2b [8] = molecular target: T1, Adenosine receptor A2b; test: Inhibitory activity against cyclic AMP production in human Adenosine A2B receptor assay
Adenosine receptor A3 [9] = molecular target: T5, Adenosine receptor A3; test: Inhibitory activity against cyclic AMP production in human adenosine A3 receptor assay
Adenosine receptor A2a [10] = molecular target: T4, Adenosine receptor A2a; test: Binding Affinity for adenosine A2A receptor expressed in HEK293 cells compared to [3H]CGS-21680; assay type: cell-based

SMILES	IC50 (Adenosine receptor A2b [1])	IC50 (Adenosine receptor A2b [2])	Ki (Adenosine receptor A1 [3])	also measured
Cn1c(-c2cccc(C(F)(F)F)c2)nc2c(N)nc(C#CC3(O)CCCCC3)nc21	5600 nM	> 10000 nM		
Cn1c(-c2cccc(F)c2)nc2c(N)nc(C#CC3(O)CCCCCC3)nc21	49 nM	440 nM	27 nM	Ki (Adenosine receptor A2a [4]): 19 nM
Cn1cnc2c(N)nc(C#CC3(O)CCCCC3)nc21		4400 nM		
Cn1c(-c2ccco2)nc2c(N)nc(C#CC3(O)CCCCC3)nc21	14 nM	220 nM	25 nM	Ki (Adenosine receptor A2a [4]): 11 nM
Cn1c(-c2ccc(F)cc2)nc2c(N)nc(C#CC3(O)CCCCC3)nc21	160 nM	1200 nM		
COc1cccc(-c2nc3c(N)nc(C#CC4(O)CCCCC4)nc3n2C)c1		1600 nM		
CCCn1c(=O)c2c(nc(/C=C/c3ccc(OC)c(OC)c3)n2C)n(CCC)c1=O	1500 nM		> 10000 nM	Ki (Adenosine receptor A3 [5]): 2500 nM; IC50 (Adenosine receptor A1 [6]): 62 nM
Cn1c(-c2cccs2)nc2c(N)nc(C#CC3(O)CCCCC3)nc21		750 nM		
Cn1c(-c2cccc(C#N)c2)nc2c(N)nc(C#CC3(O)CCCCC3)nc21	72 nM	410 nM	130 nM	Ki (Adenosine receptor A2a [4]): 13 nM
Cn1c(-c2cccc(F)c2)nc2c(N)nc(C#CC3(O)CCCC3)nc21	63 nM	420 nM	20 nM	Ki (Adenosine receptor A3 [5]): 1100 nM
Cn1c(-c2ccc(Cl)cc2)nc2c(N)nc(C#CC3(O)CCCCC3)nc21	500 nM	6300 nM		
Cn1c(-c2cccc(F)c2)nc2c(N)ncnc21		5300 nM		
Cn1c(-c2ccccn2)nc2c(N)nc(C#CC3(O)CCCCC3)nc21		1300 nM		
Cn1c(=O)c2[nH]c(-c3ccccc3)nc2n(C)c1=O [8-PHENYL THEOPHYLLINE]	210 nM	1100 nM		IC50 [7]: 454 nM; IC50 (Adenosine receptor A2b [8]): 210 nM; IC50 (Adenosine receptor A3 [9]): 1250 nM
Cc1cccc(-c2nc3c(N)nc(C#CC4(O)CCCCC4)nc3n2C)c1		970 nM		
O=C(/C=C/c1c(-c2ccccc2)nn2ccccc12)N1CCCC[C@@H]1CCO [FK453]		8100 nM	18 nM	Ki (Adenosine receptor A3 [5]): 2800 nM; IC50 (Adenosine receptor A1 [6]): 17.2 nM
Cn1c(-c2cccc(F)c2)nc2c(N)nc(C#CC3CCCC3)nc21		720 nM		
Cn1c(-c2cccc(Cl)c2)nc2c(N)nc(C#CC3(O)CCCCC3)nc21		490 nM		
Cn1c(-c2cccc(F)c2)nc2c(N)nc(C#CC(C)(C)O)nc21	150 nM	510 nM	30 nM	Ki (Adenosine receptor A3 [5]): 2100 nM; Ki (Adenosine receptor A2a [4]): 9.1 nM
Cn1c(-c2cccc(F)c2)nc2c(N)nc(C#CC3(O)CCCCC3)nc21	23 nM	250 nM	14 nM	Ki (Adenosine receptor A3 [5]): 540 nM; Ki (Adenosine receptor A2a [4]): 16 nM
COC(=O)C1=C2C=CN(C)C=C2c2nc(-c3ccccc3)nn2C1	3000 nM	> 10000 nM	> 10000 nM	Ki (Adenosine receptor A2a [10]): > 10000 nM; IC50 (Adenosine receptor A2b [8]): 3000 nM
CCC(O)(C#Cc1nc(N)c2nc(-c3cccc(F)c3)n(C)c2n1)CC	140 nM	540 nM	29 nM	Ki (Adenosine receptor A3 [5]): 330 nM; Ki (Adenosine receptor A2a [4]): 13 nM
Cn1c(-c2ccccc2F)nc2c(N)nc(C#CC3(O)CCCCC3)nc21	77 nM	440 nM	19 nM	Ki (Adenosine receptor A2a [4]): 15 nM
COc1ccc(-c2nc3c(N)nc(C#CC4(O)CCCCC4)nc3n2C)cc1F		> 10000 nM		
Cn1c(-c2ccccc2)nc2c(N)nc(C#CC3(O)CCCCC3)nc21		760 nM		
